Earlier results in patent publication US20060198926A1, “ALPHA-PYRONE COMPOSITION FOR CONTROLLING CRAVING AND AS A SUBSTITUTE FOR ALCOHOL” (priority 1999, published 2006).

System: dopaminergic neurons of the nucleus accumbens
Settings: administered in vivo by microdialysis into the nucleus accumbens (Baum 1998)

SMILES: COc1cc(/C=C/c2ccccc2)oc(=O)c1 [desmethoxyyangonin]
- levels of dopamine in the nucleus accumbens: increase in dopamine

SMILES: COc1ccc(/C=C/c2cc(OC)cc(=O)o2)cc1 [yangonin]
- levels of dopamine in the nucleus accumbens: decreases dopamine to undetectable levels
